assay: gradient 5% acetonitrile 3 min, to 50% in 2 min, to 85% in 15 min, held 3 min, 100 µL/min; settings: column: Zorbax Extend-C18 2.1 x 50 mm; eluents: water / acetonitrile, 0.1% formic acid
How it was run: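 Mixtures of ~100 pure standards were chromatographed on a Zorbax Extend-C18 column (2.1 × 50 mm, 1.8 μm) at 100 μL/min using water and acetonitrile, each with 0.1% formic acid. Detection used a quadrupole time-of-flight mass spectrometer in positive and negative ionization mode, and data collection spanned 3 months. Retention time was obtained from adduct peaks picked computationally and each checked manually.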

Point of comparison: `Cc1ccccc1CNC(=O)C1(C)CCCN(C(=O)Nc2ccc3c(c2)OCCO3)C1` (stereo not given), RP-LC retention time 846 s. Against it:
- Cc1ccc(-c2noc(-c3ccccc3S(=O)(=O)NCCC(C)C)n2)cc1 — higher, 1330 s
- Oc1c(Cl)cc(Cl)c2cccnc12 — higher, 1020 s
- COc1cc(OC)cc(-c2nc(-c3cn(Cc4ccc(C)cc4)nn3)no2)c1 — higher, 1090 s
- Cc1ccc(NC(=O)c2cnn3c2CCCC3)cc1 — lower, 770 s
- O=S(=O)(c1ccc(-c2noc(-c3ccccc3Cl)n2)cc1)N1CCOCC1 — higher, 1100 s
- COc1ccccc1NC(=O)NC1CCN(c2cc(C)cc(C)c2)C1=O (stereo not given) — higher, 881 s
- Cc1ccc(Cc2nc(-c3ccc4oc(C)nc4c3)no2)cc1 — higher, 1070 s
- Cc1ccccc1Nc1c(-c2cccc(Cl)c2)nc2c(C)cccn12 — lower, 802 s
- Cc1ccc(-c2nnc(COc3cccc(NC(=O)c4n[nH]c5c4CCCC5)c3)o2)cc1 — higher, 1010 s
- Cc1ccn(-c2ccc(C(=O)NC3CCCC3)cn2)n1 — lower, 815 s
- CN1CCN(c2ncc3c(n2)CC(c2ccc(Cl)cc2)CC3=O)CC1 (stereo not given) — lower, 674 s
- CC1CC(C)CN(CCCNC(=O)CCCOc2cc(=O)n(C)c3ccccc23)C1 (stereo not given) — lower, 604 s
- O=C(NCCc1c[nH]c2ccc(F)cc12)c1cn(-c2ccc(F)cc2)nn1 — higher, 914 s
- CN1C(=O)c2cc(C(=O)NCCCc3ccccc3)nn2CC1(C)C(=O)NC1CCCCC1 (stereo not given) — higher, 854 s
- O=C(c1ccsc1)N1CC(n2cc(C(=O)N3CCOCC3)nn2)C1 — lower, 609 s
- Cc1cc2n(n1)CCC(=O)N2CCCC(=O)NCc1ccco1 — lower, 619 s
- CCN1C(=O)COc2ccc(-c3nc(NC(=O)C4CCCO4)sc3C)cc21 (stereo not given) — lower, 844 s
- O=C(Nc1ccc2nc(N3CCN(C4CCCCC4)CC3)cc(C(=O)O)c2c1)c1ccccc1Cl — lower, 627 s
- O=[N+]([O-])c1ccccc1CSc1nnc2sc3ccccc3n12 — lower, 788 s
- O=C(NC(c1nnc(-c2ccccc2)o1)c1ccccc1F)c1ccco1 (stereo not given) — higher, 851 s
- CCc1nc2cc(-c3noc(-c4cccc(C#N)c4)n3)ccc2o1 — higher, 1070 s
- O=c1c2cc(-c3ccc4c(c3)OCO4)nn2ccn1Cc1cccc(F)c1 — higher, 981 s
- CCN(Cc1ccccc1)S(=O)(=O)c1c(C)nn(-c2ccc(-c3ccccc3)nn2)c1C — higher, 1220 s
- Cn1cccc1C(CNC(=O)Nc1ccc(Cl)c(Cl)c1)N1CCOCC1 (stereo not given) — lower, 601 s
- O=C(NC1CC1)[C@@H]1C[C@H](Oc2ccccc2)CN1C(=O)c1ccco1 — lower, 700 s
- CCOC(=O)Nc1csnn1 — lower, 711 s
- Cc1c(CC(=O)NC2CC2)c(=O)n2nc(-c3ccccc3)nc2n1C — lower, 651 s
- CC1(C)CC(=O)c2cn(-c3ccc(F)cc3)c(=O)c(C(=O)N3CCc4ccccc43)c2C1 — higher, 954 s
- O=C(NC1CCCCCC1)c1ccc(CN2CCN(Cc3ccccc3)C(=O)C2=O)cc1 — lower, 812 s
- CN(C)c1ccc(CNC(=O)c2cc(=O)n3c(nc4ccccc43)s2)cc1 — lower, 805 s
- CCN1C(=O)COc2ccc(-c3nc(NC(=O)CCc4ccccc4)sc3C)cc21 — higher, 1040 s
- CCN1CCN(CCNC(=O)c2cc(-c3ccc(Cl)cc3)cn2C)CC1 — lower, 644 s
- CCOC(=O)c1ccccc1NC(=O)N1CCC2(CC1)NC(=O)c1ccccc1O2 — higher, 922 s
- Cc1cc(C(=O)NCC23CCCC=C2N(CC2CC2)C(=O)CC3)n(C)n1 (stereo not given) — lower, 800 s
- Cc1ccc2c(c1)cc(S(=O)(=O)c1ccccc1)c(=O)n2CC(=O)N1CCCC1 — lower, 817 s
- O=C(Cn1cnc2c(-c3ccc(Cl)cc3)csc2c1=O)N1CCCC1 — lower, 838 s
- CC(C)n1cnc(S(=O)(=O)N2CCC(C(=O)N3CCN(C(=O)c4ccco4)CC3)CC2)c1 — lower, 636 s
- COc1ccccc1N1CCN(c2cc(SCC(=O)Nc3c(C)cc(C)cc3C)ncn2)CC1 — higher, 1040 s
- Cn1ncc(N2CCCC(CC(=O)N3CCSCC3)C2)cc1=O (stereo not given) — lower, 666 s
- O=C(Cn1nc2nc(N3CCCC3)ccn2c1=O)N1CCN(c2ccccc2F)CC1 — lower, 691 s
- N#CCCSc1ccccc1NC(=O)c1ccc(Cl)s1 — higher, 908 s
- CC(C)CCNC(=O)NCCn1nnc2cc(C(=O)N3CCCC3)ccc21 — lower, 657 s
- Clc1ccccc1-c1nc(-c2ccc(-n3cccn3)nc2)no1 — higher, 1270 s
- CCc1nc2c(c(=O)n1CC(=O)NCc1ccccc1F)CN(Cc1ccccc1)CC2 — lower, 649 s
- CN1CCC(N2CCN(S(=O)(=O)c3ccccc3Cl)CC2)C1=O (stereo not given) — lower, 570 s
- CCC1CCCCN1C(=O)c1ccc(-c2nnc3ccc(NC(=O)C4CCC4)cn23)cc1 (stereo not given) — higher, 870 s
- O=C(CC1CCCC1)NCC1(c2ccccc2)CCCOCC1 (stereo not given) — higher, 872 s
- CC(C)S(=O)(=O)N1CC(N(C)Cc2cccnc2)C1 — lower, 562 s
- COc1ccc(C(=O)N2CCCC2c2nc(-c3ccc(OC)cc3)no2)cc1 (stereo not given) — higher, 957 s
- COCCc1noc(-c2cnc3nc(C)ccc3c2Nc2cccc(C)c2)n1 — lower, 728 s
- CCCn1cc(-c2nc(-c3ccccn3)no2)c(=O)c2cc(F)ccc21 — lower, 761 s
- CCOc1ccc(C(=O)N2CCc3cc(-c4csc(C)n4)ccc32)cc1 — higher, 1060 s
- COc1ccc(F)cc1S(=O)(=O)N1CCC(C(=O)Nc2cc(C)on2)CC1 — lower, 745 s
- Cc1ccc(C(C)NC(=O)c2cn(-c3ccc(NC(=O)CC(C)C)cn3)cn2)cc1 (stereo not given) — higher, 872 s
- CC(C(=O)N1CCN(c2ccccn2)CC1)n1c2ccccc2c2cnn(C)c(=O)c21 (stereo not given) — lower, 627 s
- COc1ccc(NC(=O)CN2C(=O)C(C)(C)c3ccccc32)cc1OC — lower, 778 s
- Cc1ccc(OCC(=O)N2CCCCC2c2nncn2CC2CC2)cc1 (stereo not given) — lower, 767 s
- NC(=O)C1CCN(C(=O)c2ccc(F)cc2)CC1 — lower, 589 s
- Cc1ccc(CN2CCN(CC(=O)N3CCN(c4ccccn4)CC3)C(=O)C2=O)cc1 — lower, 586 s
- Cc1nc(N)n(CC(=O)NCc2ccccc2)c(=O)c1C — lower, 611 s
- CC(C)NC(=O)c1ccc2c(c1)nc(CN(C)C(=O)Nc1ccc3c(c1)OCCO3)n2C — lower, 616 s
- Cc1ccc(C)c(Cn2nc3ccc(S(=O)(=O)N4CCc5ccccc5C4)cn3c2=O)c1 — higher, 1100 s
- Cc1c(-c2nnc(C3CC3)o2)c(S(=O)(=O)N2CCN(C(C)C)CC2)c(C)n1C — lower, 610 s
- CCOc1cc(-c2ccc(C)cc2)nc2ccc(NC(=O)c3cccs3)cc12 — lower, 824 s
- CCc1nnc([C@@H]2CC(F)(F)CN2C(=O)c2nccn2C)o1 — lower, 631 s
- CCS(=O)(=O)Nc1cccc(-c2nc3cccnc3s2)c1 — lower, 720 s
- CCN(CC)S(=O)(=O)c1ccc2nc(Cl)cnc2c1 — higher, 950 s
- Cc1ccccc1NC(=O)C(=O)Nc1ccccc1C — higher, 1080 s
- Cc1cc(C)cc(NS(=O)(=O)c2cc3n(c2)CCCNC3=O)c1 — lower, 678 s
- O=C(Nc1ccc(OC(F)(F)F)cc1)C1CCCN(c2ccc(=O)n(-c3cccc(Cl)c3)n2)C1 (stereo not given) — higher, 1090 s
- CC(NC(=O)c1cccc2[nH]ccc12)C(=O)N1CCCc2ccccc21 (stereo not given) — lower, 822 s
- O=C(C1CCN(c2ccc(Cl)cc2)C1=O)N1CCN(c2ccccn2)CC1 (stereo not given) — lower, 634 s
- CCc1nc(-c2csc(S(=O)(=O)N3CCCC(C(=O)Nc4ccc5c(c4)OCO5)C3)c2)no1 (stereo not given) — higher, 984 s
- O=C(Nc1ccc(Oc2ccc(NC(=O)Nc3ccccc3Cl)cc2)cc1)Nc1ccccc1Cl — higher, 1250 s
- Cc1ccc(-n2ncc3c(C)nn(CC(=O)Nc4cc(C)on4)c(=O)c32)c(C)c1 — lower, 775 s
- CCOc1ccc(-c2csc(Nc3cc(C)ccn3)n2)cc1 — lower, 833 s
- COc1ccc(C2Cn3nnc(-c4nc(-c5cccc(C)c5)no4)c3CO2)cc1 (stereo not given) — higher, 1190 s
- Clc1ccccc1-c1nc(-c2ccnc(N3CCOCC3)c2)no1 — higher, 994 s
- Cn1cc(-c2ccncc2)cc1C(=O)N1CCN(c2ccccc2Cl)CC1 — lower, 671 s
- COc1ccc(-c2cn3c(CC(=O)Nc4cc(F)ccc4F)csc3n2)cc1OC — lower, 744 s
- CCC(C(=O)NCCc1ccccc1)n1cnc2nc3c(cc2c1=O)CCCC3 (stereo not given) — lower, 785 s
- CCCC(=O)Nc1ccc(-n2cnc(C(=O)NC3CCCC3)c2)nc1 — lower, 726 s
- COc1ccc(-c2ccc(=O)n(Cc3nc(-c4ccc(Cl)cc4)no3)n2)cc1 — higher, 1070 s
- Cc1nc(CCNC(=O)C2CCN(S(=O)(=O)c3ccc(Br)s3)CC2)cs1 — lower, 759 s
- Cc1cc2c(cc1S(=O)(=O)N1CCCC1C(=O)NC1CCCCCCC1)OC(C)C(=O)N2 (stereo not given) — higher, 857 s
- CC(C)NC(=O)NC1CCN(c2nc3ccccc3n(C)c2=O)CC1 — lower, 562 s
- O=c1cc(-c2ccc(O)cc2)oc2cc(O[C@@H]3O[C@H](CO)[C@H](O)[C@H](O)[C@H]3O)cc(O)c12 — lower, 746 s
- Cc1ncccc1C(=O)N1[C@H]2CC[C@@H]1c1cnc(-c3ccc(F)cc3)nc1C2 — lower, 705 s
- CN(C(=O)Cc1nnc2cc(-c3nc(C4CC4)no3)ccn12)C1CCCCC1 — higher, 1010 s
